The subject of data set [1] is SUDHL10. Briefly: Antiproliferation assay (Assay 7), SUDHL10. It is filed as cell-based. The following applies: CellTiter-Glo, median, read-out: Antiproli SUDHL10 [M] (median) IC50. On the procedure: (§1) Assessment of the Anti-Proliferative Effect of Compounds in Different Cell Lines
(§2) The impact of compounds on the proliferation of different cell lines was assessed using the CellTiter-Glo® Luminescent Cell Viability reagent from Promega (G7573).
(§3) In parallel, cells were plated in a reference (day 0) plate for time zero determination.
(§4) Rim wells were excluded. The cells were incubated for 72 hours in a humidified incubator at 37° C. The day 0 plate was measured by adding 30 μL/well of CTG solution (CellTiter-Glo® Luminescent Cell Viability reagent, Promega G7573) to time zero wells in the reference plate followed by a 10 minutes incubation and luminescence reading at 0.1 ms. using the PHERAstar FS microplate reader (BMG Labtech).
(§5) After 72 hours incubation, the treated plates were measured in the same way as the day 0 plate mentioned above.

The conditions of data set [2]: from CCOC(=O)c1[nH]c2c(-c3c(CN(CCCN4CCOCC4)S(=O)(=O)CCCCl)nn(C)c3CC)cccc2c1CCCOc1cccc2ccccc12; amine bond; NaH; DMF; 25.0 mM; 60.0 °C; 6.0 h; 2 steps.
Data set [3] concerns SK-MEL-2. Briefly: Antiproliferation assay (Assay 7), SK-MEL-2. Type of data set: cell-based. The following applies: Homo sapiens, CellTiter-Glo, 72 hours, median, read-out: Antiproli SK-MEL-2 [M] median IC50. The method, then:
as §1, §2, §3, §4, §5

The test system of data set [4] is SNU-16. Kind of data set: Antiproliferation assay (Assay 7), SNU-16. It is filed as cell-based. The following applies: Homo sapiens, CellTiter-Glo, 72 hours, median, read-out: Antiproli SNU-16 [M] median IC50. The method, then:
as §1, §2, §3, §4, §5

Data set [5] relates to A-431. Kind of data set: Antiproliferation assay (Assay 7), A-431. The note with it: Homo sapiens, CellTiter-Glo, 72 hours, median, read-out: Antiproli A-431 [M] median IC50. Type of data set: cell-based. On the procedure: as §1, §2, §3, §4, §5
Data set [6] concerns PA-1. Briefly: Antiproliferation assay (Assay 7), PA-1. It is filed as cell-based. The following applies: Homo sapiens, CellTiter-Glo, 72 hours, median, read-out: Antiproli PA-1 [M] median IC50. The method, then: as §1, §2, §3, §4, §5
For data set [7], the system named is DM-S114. Kind of data set: Antiproliferation assay (Assay 7), DM-S114. It is filed as cell-based. The note with it: Homo sapiens, DMS-114, CellTiter-Glo, 72 hours, median, read-out: Antiproli DM-S114 [M] median IC50. On the procedure: as §1, §2, §3, §4, §5
The subject of data set [8] is SUDHL5.
Data set [9] has as its system SUDHL10.

Where a name gives a salt, the structure may show the parent alone. Read-outs that look alike come from different tables or passages of the source.

As for `Cc1c2c(nn1C)CN(C)S(=O)(=O)CCCn1c(C(=O)O)c(CCCOc3cccc4ccccc34)c3ccc(Cl)c-2c31` (racemic) [Example 4, (rac)-4-Chloro-2,3,14-trimethyl-7-{3-[(naphthalen-1-yl)oxy]propyl}-13,13-dioxo-10,11,12,13,14,15-hexahydro-2H-13λ^6-pyrazolo[3′,4′:4,5][1,2,8]thiadiazacycloundecino-[6,7,8-hi]indole-8-carboxylic acid], the IC50 in data set [1] (Homo sapiens, SU-DHL10, 72 h) turned out to be 5.6e-07 M.

With `CCc1c2c(nn1C)CN(CCCN1CCOCC1)S(=O)(=O)CCCn1c(C(=O)O)c(CCCOc3cccc4ccccc34)c3cccc-2c31` (racemic) [Example 15, (rac)-12-Ethyl-11-methyl-8-(3-morpholinopropyl)-1-(3-(naphthalen-1-yloxy)propyl)-4,5,6,8,9,11-hexahydropyrazolo[3′,4′:4,5][1,2,8]thiadiazacycloundecino[6,7,8-hi]indole-2-carboxylic acid 7,7-dioxide 2,2,2-trifluoroacetic acid salt], in [2], the ring closure, yield of all isomers was 48.2%.

As for `CCc1c2c(nn1C)CN(CC)S(=O)(=O)CCCn1c(C(=O)O)c(CCCOc3cccc4cc(F)ccc34)c3ccc(Cl)c-2c31` (racemic) [Example 56, (rac)-4-chloro-3,14-diethyl-7-{3-[(6-fluoro-1-naphthyl)oxy]propyl}-2-methyl-11,12,14,15-tetrahydro-2H,10H-pyrazolo[3′,4′:4,5][1,2,8]thiadiazacycloundecino[6,7,8-hi]indole-8-carboxylic acid 13,13-dioxide], the IC50 in [3] came to 1.14e-06 M; in data set [4], 1.05e-06 M; in data set [5] it was 1.18e-06 M; in data set [6], 7.07e-07 M; in [7] it was 5.61e-07 M.

In the case of `CCc1c2c(nn1C)C(CCC1CCOCC1)N(C)S(=O)(=O)CCCn1c(C(=O)O)c(CCCOc3cccc4cc(F)ccc34)c3ccc(Cl)c-2c31` (racemic) [Example 60, (rac)-4-chloro-3-ethyl-7-{3-[(6-fluoro-1-naphthyl)oxy]propyl}-2,14-dimethyl-15-[2-(tetrahydro-2H-pyran-4-yl)ethyl]-11,12,14,15-tetrahydro-2H,10H-pyrazolo[3′,4′:4,5][1,2,8]thiadiazacycloundecino[6,7,8-hi]indole-8-carboxylic acid 13,13-dioxide (Racemate 1)], the IC50 in data set [3] came out at 5.08e-06 M; in data set [4], 2.54e-06 M; in [5] it was 2.07e-06 M; in data set [6] it was 1.84e-06 M.

`CCc1c2c(nn1C)C(CCN1CCOCC1)N(C)S(=O)(=O)CCCn1c(C(=O)O)c(CCCOc3cccc4cc(F)ccc34)c3ccc(Cl)c-2c31` (racemic) [Example 73, (rac)-(4-chloro-3-ethyl-7-{3-[(6-fluoronaphthalen-1-yl)oxy]propyl}-2,14-dimethyl-15-[2-(morpholin-4-yl)ethyl]-13,13-dioxo-10,11,12,13,14,15-hexahydro-2H-13lambda^6-pyrazolo[3′,4′:4,5][1,2,8]thiadiazacycloundecino[6,7,8-hi]indole-8-carboxylic acid (Racemate 1)]: the figures for the half-maximal inhibitory concentration (IC50) in data set [8] and in data set [9] were 20 nM and 19 nM, respectively.

`Cc1c2c(nn1C)CN(C)S(=O)(=O)CCCn1c(C(=O)O)c(CCCOc3cccc4ccccc34)c3ccc(Cl)c-2c31` (single isomer, unassigned; enantiomer 1) [Example 5, 4-Chloro-2,3,14-trimethyl-7-{3-[(naphthalen-1-yl)oxy]propyl}-13,13-dioxo-10,11,12,13,14,15-hexahydro-2H-13λ^6-pyrazolo[3′,4′:4,5][1,2,8]thiadiazacycloundecino[6,7,8-hi]indole-8-carboxylic acid-N-ethylethanamine salt (Enantiomer 1)]: in data set [1] (72 hours), the half-inhibitory concentration (IC50) was determined as 4.4e-07 M.

The values are drawn from patent US11401278B2, “Macrocyclic indole derivatives” (The Broad Institute, Inc., priority 2017, dated 2022).
